Calls of active or inactive are those of the source.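 How the source made its calls: active means half-maximal dose of signal decrease from fit no higher than ten times the top valid tested dose; inconclusive means fit invalid, or curve flat with 30 to 70% inhibition; inactive means the rest.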
Target: Lysine-specific demethylase 4A (Homo sapiens) (UniProt O75164)
Experiment: JMJD2A histone demethylase inhibitors, dose response, selectivity assay for GASC-1 inhibitor project, biochemical, DELFIA europium, cherry-picked samples (AID 488840);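 further: europium signal reports the dimethyl H3K9 product detected by antibody so inhibitors lower it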
Conditions: GST-JMJD2A(1-420) H3K9me3 demethylation

Sequence of Lysine-specific demethylase 4A (Homo sapiens) (O75164 whole entry, looked up): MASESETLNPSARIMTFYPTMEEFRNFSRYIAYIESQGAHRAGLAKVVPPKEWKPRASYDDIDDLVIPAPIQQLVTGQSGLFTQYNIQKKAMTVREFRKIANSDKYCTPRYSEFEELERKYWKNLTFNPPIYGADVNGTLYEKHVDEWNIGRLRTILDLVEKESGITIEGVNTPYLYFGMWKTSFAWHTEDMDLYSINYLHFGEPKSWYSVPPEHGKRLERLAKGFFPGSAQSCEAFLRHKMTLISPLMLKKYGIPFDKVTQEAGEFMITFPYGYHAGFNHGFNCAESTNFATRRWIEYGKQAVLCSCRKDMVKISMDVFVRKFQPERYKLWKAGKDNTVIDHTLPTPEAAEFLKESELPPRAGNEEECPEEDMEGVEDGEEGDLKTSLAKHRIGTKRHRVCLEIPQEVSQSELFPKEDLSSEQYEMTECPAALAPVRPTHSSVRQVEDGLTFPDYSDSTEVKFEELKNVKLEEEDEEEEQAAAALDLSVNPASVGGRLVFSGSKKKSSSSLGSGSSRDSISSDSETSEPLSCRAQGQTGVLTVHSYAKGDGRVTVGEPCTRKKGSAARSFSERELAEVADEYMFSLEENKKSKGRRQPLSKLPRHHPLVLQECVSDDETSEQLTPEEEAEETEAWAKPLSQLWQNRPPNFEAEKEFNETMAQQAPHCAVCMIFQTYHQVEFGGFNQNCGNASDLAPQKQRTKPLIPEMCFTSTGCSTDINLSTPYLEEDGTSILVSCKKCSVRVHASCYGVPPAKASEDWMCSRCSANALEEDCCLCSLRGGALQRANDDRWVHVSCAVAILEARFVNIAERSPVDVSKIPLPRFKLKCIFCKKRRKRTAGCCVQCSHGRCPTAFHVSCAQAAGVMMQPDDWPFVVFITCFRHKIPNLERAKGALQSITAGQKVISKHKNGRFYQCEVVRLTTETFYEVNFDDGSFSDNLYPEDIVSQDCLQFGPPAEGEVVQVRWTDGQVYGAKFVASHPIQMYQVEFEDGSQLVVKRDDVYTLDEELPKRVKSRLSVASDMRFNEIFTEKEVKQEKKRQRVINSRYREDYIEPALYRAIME

In the case of CC(=O)C[C@@H](O)CC(=O)[C@H]1OC(=O)[C@H](C)CCCCc2ccccc21, the AC50 was > 6 µM (inactive).
